Data on three molecules can be found in publication PMC6669903 (Neuron, 2019).

One assay concerns Tiam1/CaMKII complex. It counts as cell-based. As to conditions: bath application (AP5, KN-93) or cotransfection (CaMKIIN).
For assay [1], the system named is dendritic spines of CA1 pyramidal neurons in hippocampal organotypic slice cultures. As to the kind of experiment: structural LTP. It counts as cell-based, rat.
Another assay concerns Rac1. Description: Rac1 activity in spines by FRET-FLIM sensor during sLTP. It counts as cell-based, rat. As to conditions: change in lifetime of GFP-Rac1 in stimulated spines; uncaging 0.5 Hz.
The subject of assay [2] is Tiam1 phosphorylation by CaMKII in neurons in dissociated culture. As to the kind of experiment: Tiam1 phosphorylation after chemical LTP, Phos-tag SDS-PAGE. It counts as cell-based, rat. As to conditions: KN-93 10 µM; glycine 200 µM for 10 min.

`N[C@H](CCCP(=O)(O)O)C(=O)O` [AP5, D-(−)-2-Amino-5-phosphonopentanoic acid]: the “effect on Tiam1/CaMKII interaction after sLTP induction” value in the assay on Tiam1/CaMKII complex is recorded as “blocked”.

In the case of `O=c1cc(CN2CCOCC2)occ1OCCCCCSc1ccnc2cc(C(F)(F)F)ccc12` [EHT1864], in assay [1] (applied 5 min after sLTP induction), the “effect on established sLTP, drug added 5 min after induction” value is on record as “effectively blocked sLTP”. The “effect on established sLTP, drug added 15 min after induction” value in assay [1] (applied 15 min after sLTP induction) is given as “effectively blocked sLTP”. Also, the “effect on sLTP, drug added before induction” value in assay [1] (applied 30 min before sLTP induction, spines visualized by untagged GFP) is listed as “effectively inhibited sLTP”.

In the case of `COc1ccc(S(=O)(=O)N(CCO)c2ccccc2CN(C)C/C=C/c2ccc(Cl)cc2)cc1` [KN-93], the “effect on Rac1 activation during sLTP” value in the assay with Rac1 is reported as “effectively blocked the activation of Rac1”. Also, the “effect on Tiam1/CaMKII interaction after sLTP induction” value in the assay with Tiam1/CaMKII complex was “blocked”. For the same molecule, the “effect on persistent Tiam1 phosphorylation after chemical LTP” value in assay [2] is on record as “blocked”.
